{"source": "patent US8258182B2", "about": "“Substituted 1,3-diphenylpropane derivatives, preparations and uses thereof” (Genfit, priority 2006, dated 2012)", "key": {"[1]": {"system": "MCP1 secretion by THP1 monocytes", "test": "Secretion of MCP1 by THP1 monocytes stimulated with PMA (ELISA)", "format": "cell-based, human", "conditions": "1 μM, 24 hours, PMA 5 ng/ml, vs DMSO alone (FIG. 4-1)", "experimental": "(§1) The anti-inflammatory effects of the compounds according to the invention were evaluated by measuring the secretion of MCP1 (Monocyte chemotactic protein-1) by THP1 monocytes treated for 24 hours with the compounds according to the invention and stimulated simultaneously with PMA (Phorbol 12-myristate 13-acetate, which promotes an inflammatory response in cells and their differentiation into macrophages).\nas §1, with “of the compound according to” for “of the compounds according to”, “into macrophages). […]” for “into macrophages).”\nThe treatment medium is recovered and the MCP1 concentration is measured using the ELISA kit<<Human MCP-1 ELISA Set>>(BD OptEIA; 555179) in accordance with the manufacturer's recommendation.\nMCP1 is laid on a plate and is recognized by a anti-MCP1 specific antibody. […] The coloration resulting from the enzymating activity is proportional to the quantity of fixed MCP1 and can be measured by a spectrophotometry method. A range is performed from a point representative of a known concentration and from which the MCP1 concentration of each sample is calculated. […]"}, "[2]": {"system": "db/db mice", "test": "Plasma HDL-cholesterol, triglycerides and free fatty acids in db/db mice after per os treatment", "format": "in vivo, mouse", "conditions": "50 mpk per os, 28 days", "experimental": "The effect of the compounds according to the invention is evaluated in vivo on the db/db mice by measuring the levels of HDL-cholesterol, triglycerides, and plasma free fatty acids after 28 days of a per os treatment with the compounds according to the invention.\nThe hypolipidemic properties of the compounds according to the invention are evaluated in vivo by measuring the plasma levels of plasmatic lipids and by analyzing the genetic expression PPARs target genes, after treating the dyslipidemic db/db mice with the compounds according to the invention, administered by the oral route.\nFemale db/db mice were kept on a 12 hour/12 hour light/dark cycle at a constant temperature of 20±3° C. After a one week acclimatization period, the mice were weighed and divided into groups of 8 animals selected such as the distribution of body weight and of plasma lipid rate, determined before the experiment, was uniform. The tested compounds were suspended in carboxymethylcellulose (Sigma C4888) and administered to the animals by intra-gastric gavage, once a day for 28 days at the chosen doses. The animals had free access to food and water (standard diet). Taking of food and weight gain are recorded throughout the experiment. At the end of the experiment, after a 4 hour fast, the animals were anesthetized and a blood sample was taken on anticoagulant (EDTA). Then the mice were weighed and euthanized. The plasma was separated by centrifugation at 3000 rotations/minute for 20 minutes. The samples were kept at +4° C. The hepatic tissue and skeletal muscle samples were taken and frozen immediately in liquid nitrogen then conserved at −80° C. for later analysis.\nPlasma triglycerides concentrations are measured by enzymatic assays (bioMérieux-Lyon-France) according to the provider's recommendations.\nLow-density lipoproteins (VLDL and LDL) are precipitated by phosphotungstate. The precipitate is eliminated by centrifugation. HDL-cholesterol present in the supernatant is measured by enzymatic assay (bioMérieux-Lyon-France) in accordance with the provider's recommendations."}}}
{"smiles": "CCCOc1ccc(C(=O)CCc2cc(C)c(OC(C)(C)C(=O)O)c(C)c2)cc1", "note": "[Compound 8, 2-[2,6-dimethyl-4-[3-[4-(propyloxy)phenyl]-3-oxo-propyl]phenoxyl]-2-methylpropanoic acid]", "values": [{"measurement": "MCP1 secreted by monocytes", "setting": "[1]", "value": "significant reduction"}, {"measurement": "plasma HDL-cholesterol rates", "setting": "[2]; vs control animals (FIG. 3-1)", "value": "significantly increased"}, {"measurement": "circulating triglycerides rates", "setting": "[2]; vs control animals (FIG. 3-2)", "value": "very significantly decreased"}, {"measurement": "circulating free fatty acids rates", "setting": "[2]; vs control animals (FIG. 3-3)", "value": "very significantly decreased"}]}
